Measured values reported in BindingDB's records for doi:10.1016/j.bmcl.2005.02.011 (Florida Institute of Technology, 2005).

Assay: Effective concentration for DP2 mediated chemotaxis in eosinophils

Row | EC50 [nM] | SMILES
1 | 1.7 | CCCCC[C@@](C)(O)/C=C/[C@H]1C(=O)C[C@H](O)[C@@H]1C/C=C/CCCC(=O)O [(Z)-7-[(1R,4S,5R)-5-Hydroxy-2-((R)-3-hydroxy-3-methyl-oct-1-enyl)-3-oxo-cyclopentyl]-hept-5-enoic acid]
2 | 128 | CCCCC[C@](C)(O)/C=C/[C@H]1C(=O)C[C@H](O)[C@@H]1C/C=C/CCCC(=O)O
3 | 10 | CCCCC[C@H](O)/C=C/[C@H]1C(=O)C[C@H](O)[C@@H]1C/C=C/CCCC(=O)O [(Z)-7-[(1R,2R,5S)-5-Hydroxy-2-((E)-(S)-3-hydroxy-oct-1-enyl)-3-oxo-cyclopentyl]-hept-5-enoic acid]
